According to patent publication US20070218555A1, “Anti-Microbial Activity Of Biologically Stabilized Silver Nano Particles” (priority 2004, published 2007):

Experiments:
[1] = tested on: Pseudomonas aeruginosa MDR strain; assay: Interaction of drugs with silver nano particles, checkerboard macrodilution (FICI); assay type: cell-based; conditions: drug in combination with biologically stabilized silver nano particles
Method: Interaction of drugs with biologically stabilized silver nano particles. A two-dimensional checkerboard macrodilution technique was used to characterize interactions between biologically stabilized silver nano particles and drug (viz. Gentamicin, Penicillin, Cefotaxime, Ceptazidime, Kanamycin, Vancomycin). six experiments were performed for Pseudomonas aeruginosa MDR strain described above. Inoculum was prepared similarly to those for susceptibility testing. Individual drug with biologically stabilized silver nano particles were diluted in serial twofold dilutions, and concentrations ranged from four fold below to four folds above the MIC. The highest dilution of the drug combination with biologically stabilized silver nano particles that inhibits the visible growth of the test organism was regarded as the fractional inhibitory concentration (FIC). The fractional inhibitory concentration (FIC) index (FICI) was used to define the interaction between the two drugs. The FICI is the sum of the FICs of each of the drugs. The FIC was calculated as follows: MIC of the drug tested in combination/MIC of the drug tested alone. The interaction was defined as synergistic if the FICI was […], as additive if the FICI was >0.5 to 1.0, as indifferent if the FICI was >1.0 to 2.0, and as antagonistic if the FICI was >2.0.

[2] = tested on: human dermal fibroblast cells; conditions: cited from earlier work

Compound	interaction by mean FICI [1]	low concentration of silver ions showing inhibitory effect [2] [μM/l]
CC(C)(O/N=C(\C(=O)N[C@@H]1C(=O)N2C(C(=O)[O-])=C(C[n+]3ccccc3)CS[C@H]12)c1csc(N)n1)C(=O)O [ceptazidime]	partially synergistic	
O=[N+]([O-])[O-].[Ag+] [silver nitrate]		8.2
